Source: US20230414657A1, “Novel compositions for neutralizing toxic effects of hydrogen peroxide in living cells or tissues” (Dzala LLC, priority 2020, published 2023)
Where two headings read alike, the source gives them in different places.

What was measured:
C. elegans [1] = assay: Growth rate / worm size; type: in vivo; settings: for Growth: 100 mM H2O2 plus supplement (10 mM GA, 100 μM glycine or 500 μM L-serine)
Experimental: (§1) Synchronized L1 worms were incubated at 15° C. on plates or in liquid culture and exposed to different conditions as indicated. Single worms were selected randomly from the plates or aliquots were taken from the liquid cultures and added to NGM plates for immediate visualization. 25 worms per treatment were measured at 24-48 hr intervals and all growth curves were done four times.

C. elegans [2] = settings: in vivo, 3 days
Experimental: To quantify the uptake of glycolate, glycine and L-serine approximately 10000 synchronized L1 were incubated in liquid cultures as described above and grown for 3 days in the presence of […] of [1-^14C]-glycolate, [1-^14C]-glycine or L-[1-^14C]-serine. At this stage, worms were snap-frozen and stored at […]. Animals were lysed by freezing/thawing and extracted by using the Bligh and Dyer method^7. After phase separation, organic and aqueous fractions were recovered from the lower and upper phases, respectively. After drying and concentration, radioactivity was quantified using a scintillation counter and normalized for total number of worms.

C. elegans [3] = type: in vivo
Experimental: Mitochondrial staining was performed as described previously^3,4. Briefly, L1 worms were grown on plate or in liquid culture for 2-3 days at 15° C. […] Next, the excess dye was washed off with M9 buffer and worms were incubated in 100 μl M9 for 30 min to eliminate the excess dye in the gut. Finally, worms were paralyzed with 0.5 mM Levamizol (Sigma-Aldrich), placed on slides covered with a thin layer of 2% agarose on top of which the coverslip (22×22 mm, Menzel-Glaser no. 1) was fixed using nail polish. We used a Zeiss LSM 700 inverted laser scanning confocal microscope and a Zeiss LCI Plan-Neofluar 63×/1.3 ImmCorr DIC M27 objective to image mitochondria (Zeiss, Germany). MitoTracker Red CMXRos was excited at 555 nm and the emission above 560 nm was acquired by the second PMT. Optical sections at 0.1×0.1×0.5 μm^3 x-y-z resolution were collected in […]. Final images were adjusted for intensity and merged in Fiji. No non-linear adjustments were made.

C. elegans [4] = assay: NADPH and NADP+ quantification by LC-MS; type: in vivo; settings: 100 mM H2O2 plus 10 mM glycolate, 100 μM glycine or 500 μM L-serine, 3 days
Experimental: To measure NADP^+ and NADPH from C. elegans, 10000-15000 L1 worms were exposed to each condition in duplicates for 3 days and then washed four times with H2O. […] 25 µM solutions of each nucleotide were treated in parallel as standards. Homogenization for 15 min at 4° C. and 300 g was carried out in a TissueLyser II (Qiagen) after adding ⅓ volume of 0.5 mm zirconium beads. The resulting mixture was centrifuged at 13,000 g and the supernatant transferred to a new tube.
LC-MS/MS analysis of the samples was performed on a high-performance liquid chromatography (HPLC) system (1200 Agilent) coupled online to G2-S QTOF (Waters). For normal phase chromatography Bridge Amide 3.5 ml (2.1×100 mm) column from Waters was used. The mobile phase composed of eluent A and eluent B (40% acetonitrile, 0.1 mM ammonium acetate and 0.01% NH40H) was applied with the following gradient program: Eluent B, from 0% to 100% within 18 min; 100% from 18 min to 21 min; 0% from 21 min to 26 min. The flow rate was set at 0.3 ml/min. The spray voltage was set at 3.0 kV and the source temperature was set at 120° C. Nitrogen was used as both cone gas (50 L/h) and desolvation gas (800 L/h), and argon as the collision gas. MS^E mode was used with Bridge Amide 3.5 µl (2.1×100 mm) column in ESI negative ionization polarity for the detection of the nucleosides. Mass chromatograms and mass spectral data were acquired and processed by MassLynx software (Waters). Three and four biological replicates were analyzed for each condition of mel-32 RNAi and EV, respectively.

C. elegans [5] = assay: Peroxide treatment of mutant, RNAi or unstressed worms: MMP, OCR and growth read together; type: in vivo; settings: for Restoration of MMP, OCR or growth rate: H2O2, RNAi against mel-32 or gcst-1; for MMP, OCR, growth rate: H2O2, worms fed with empty vector RNAi bacteria; for Response to glycine and L-serine: ghpr-1 and ghpr-1, ldh-1, gox-1 mutants fed with mel-32 RNAi bacteria; for Deleterious effects of peroxide (MMP, respiration, size): ghpr-1 single and ghpr-1, gox-1, ldh-1 triple mutants, H2O2 plus glycine or L-serine
Source text: C. elegans wild-type (N2) strain was received from Caenorhabditis Genetics Center, USA. Mutant strains were generated using the following primers. Idh-1: […] and […]; C31C9.2 (ghpr-1): […] and […]and F41E6.5 (gox-1): […]and[…]. […] Progeny of the rescued strains were genotyped for homozygous deletion with PCR primers for three generations. All mutants were outcrossed at least twice with the wild type to eliminate background mutations. Double and triple mutants were obtained by crossing single or double mutants and selecting the homozygous progeny by PCR.
For RNAi experiments in liquid, E. coli HT115 containing L4440 empty vector or the indicated cDNA fragment in L4440 was inoculated in 100 ml of LB containing 100 μg/ml ampicillin and incubated overnight at 37° C. in a shaking incubator at 250 rpm. To induce the production of dsRNA, a final concentration 0.8 mM IPTG was added to the collected bacterial pellet diluted 100-fold and incubated overnight at 25° C. in a shaking incubator at 250 rpm. Bacteria were then pelleted by centrifugation at 4000 rpm for 5 mins and resuspended in 200 μl S-medium containing 100 μg/ml ampicillin and 0.8 mM IPTG.
A population of synchronized L1 larvae was added to 30-ml glass tubes containing 2.5 ml of S-complete medium (liquid culture)^2 and NA22 or induced RNAi bacteria at an OD600 of 1.9. […] Worms were incubated at 15° C. and 150 rpm in a shaking incubator for 2-6 days, refreshing the medium every 2 days.
Mitochondrial staining was performed as described previously^3,4. Briefly, L1 worms were grown on plate or in liquid culture for 2-3 days at 15° C. Subsequently, they were pelleted in a 15-ml tube, rinsed twice with H2O and resuspended in 100 μl of M9. 5 μM MitoTracker Red CMXRos (Thermo Fisher Scientific, Germany) in DMSO was added to the worm suspension and incubated in this solution for 1.5 hr at room temperature in the dark. Next, the excess dye was washed off with M9 buffer and worms were incubated in 100 μl M9 for 30 min to eliminate the excess dye in the gut. Finally, worms were paralyzed with 0.5 mM Levamizol (Sigma-Aldrich), placed on slides covered with a thin layer of 2% agarose on top of which the coverslip (22×22 mm, Menzel-Glaser no. 1) was fixed using nail polish. We used a Zeiss LSM 700 inverted laser scanning confocal microscope and a Zeiss LCI Plan-Neofluar 63×/1.3 ImmCorr DIC M27 objective to image mitochondria (Zeiss, Germany). MitoTracker Red CMXRos was excited at 555 nm and the emission above 560 nm was acquired by the second PMT. Optical sections at 0.1×0.1×0.5 μm^3 x-y-z resolution were collected in a 4D hyperstack. Final images were adjusted for intensity and merged in Fiji. No non-linear adjustments were made.
as §1, with “times. Images were analyzed using FIJI (Image J) software, with length measurements derived by the sum-total of a number of segmented lines of known length, down the center of the worm as described previously^5.” for “times.”
(§2) Oxygen consumption of worms was measured with a Seahorse XFe96 system (Seahorse Bioscience, North Billerica, MA), as previously described^4. L3 larvae of the different strains were grown on plates or in liquid culture and supplemented for 2-4 days as described for each experiment. After removing bacteria and debris, approximately 100 worms were pipetted into each well of a 96-well Seahorse XF^e assay plate and OCR was measured until it stabilized. Then, 3 subsequent measurements were made at 6.5-min intervals. Finally, the exact number of worms in each well was counted and used for normalization.

C. elegans [6] = assay: Quantification of glutathione (GSH/GSSG-Glo); type: in vivo; settings: for GSH-to-GSSG ratio: plus supplement; for GSH/GSSG ratio: H2O2-treated worms plus 100 μM glycine or 500 μM L-serine
Experimental: Sample preparation was performed as described previously with some modifications^6. From each condition 10,000 synchronized animals were harvested and washed 3 times with sterile water. […] To thoroughly lyse the worms, 5 cycles of freezing and thawing were performed in a water bath at 37° C., followed by a 1-min sonication. The samples were then centrifuged and the supernatant tested for protein estimation and GSH quantification. Total GSH, GSSG, and GSH/GSSG ratios were quantified using the GSH/GSSG-Glo assay kit (Promega) following the instructions of the manufacturer. Briefly, each sample was tested in triplicate in 96-well culture plates with total glutathione or GSSG lysis reagent, for total glutathione or GSSG measurement, respectively. The GSH probe, luciferin-NT, was converted to luciferin, which is coupled to a firefly luciferase. The plates were then read in an […] plate reader (Perkin Elmer, United States). The GSSG value was subtracted from the total glutathione to calculate GSH levels and GSH/GSSG ratio. Four biological replicates were analyzed for each condition.

C. elegans [7] = assay: Oxygen consumption rate (OCR), Seahorse XFe96; type: in vivo
Experimental: as §2, with “normalization. A small number of abnormal readings were also filtered out at this stage. On average, 7-8 wells (technical replicates) were used for each condition. Normalized OCR values were averaged for the last 3 measurements for each strain and condition. Four biological replicates were analyzed for each condition.” for “normalization.”

C. elegans [8] = assay: H2O2 accumulation in worms (Amplex Red); type: in vivo; settings: peroxide + GA with glutathione synthesis blocked by BSO
Experimental: Hydrogen peroxide was measured using the Amplex Red hydrogen peroxide/peroxidase assay kit (Molecular Probes, Eugene, OR), adapting the protocol to C. elegans. In the presence of hydrogen peroxide, Amplex Red is oxidized by horseradish peroxidase to form a red-fluorescent oxidation product whose fluorescence intensity can be measured.
To measure ROS production from C. elegans, 5000-7000 L1 worms were exposed to each condition for 2-3 days as indicated and then washed four times in 1 ml of the reaction buffer supplied with the kit. Volumes were adjusted to 700-1200 nematodes/50 μl and 50 μl was pipetted into a 96-well plate. A total of 50 μl of the Amplex Red reaction buffer was then added to the wells, and after 1 hr fluorescence was measured with a fluorescence microplate reader using excitation at 530±12.5 nm and fluorescence detection at 590±17.5 nm. Background fluorescence, determined for a no-H2O2 control reaction, was subtracted from each value. The significance of differences between conditions was determined by an unpaired fest. GraphPadPrism 8.0 was used for these calculations. Three biological replicates were carried out for each condition.

[9] = 100 mM H2O2 plus supplement (10 mM GA, 100 μM glycine or 500 μM L-serine)
[10] = H2O2-treated animals defective in mel-32 or gcst-1 (RNAi)
[11] = H2O2-treated worms fed with empty vector

Row | Radioactivity in labelled animals (uptake) relative to [14C]GA (C. elegans [2]) [times higher] | SMILES | Growth (C. elegans [1]) | Mitochondrial membrane potential (MMP) (C. elegans [3]; [9]) | Ratio of NADPH to NADP+ (C. elegans [4]) | Restoration of MMP, OCR or growth rate (C. elegans [5]) | MMP, OCR, growth rate (C. elegans [5]) | Response to glycine and L-serine (C. elegans [5]) | Deleterious effects of peroxide (MMP, respiration, size) (C. elegans [5]) | GSH-to-GSSG ratio (C. elegans [6]; [10]) | GSH-to-GSSG ratio (C. elegans [6]; [11]) | GSH/GSSG ratio (C. elegans [6]) | Respiration rate (OCR) (C. elegans [7]; [9]) | Growth rate (C. elegans [1]; H2O2 + GA + BSO (0.5 mM)) | Mitochondrial membrane potential (MMP) (C. elegans [3]; H2O2 + GA + BSO (0.5 mM)) | Accumulation of H2O2 (C. elegans [8]) | Biosynthesis of glutathione (C. elegans [6]; 0.5 mM BSO, FIG. 2) | GSH/GSSG per worm (C. elegans [6]; H2O2 + GA + BSO, control 107.5) | Total glutathione (C. elegans [6]; H2O2 + GA + inhibitor BSO) | Respiration rate (OCR) (C. elegans [7]; H2O2 + GA + BSO (0.5 mM))
1 | 3 | N[C@@H](CO)C(=O)O [L-serine] | able to restore | able to restore | much weaker, but still significant, increase | none of these three compounds were able to restore | restored parameters | loss of response | overcome the deleterious effects of peroxide | strongly reduced | maintained close to control levels | able to restore | able to restore | – | – | – | – | – | – | –
2 | – | NCC(=O)O [glycine] | able to restore | able to restore | fully rescued | none of these three compounds were able to restore | restored parameters | loss of response | overcome the deleterious effects of peroxide | strongly reduced | maintained close to control levels | able to restore | able to restore | – | – | – | – | – | – | –
3 | – | CCCCS(=N)(=O)CCC(N)C(=O)O [BSO, L-buthioninesulfoximine, reference compound] | – | – | – | – | – | – | – | – | – | – | – | prevented the GA-mediated improvement | prevented the GA-mediated improvement | unchanged | inhibited | 36 | 65 % of the control | prevented the GA-mediated improvement
